Results as given in US8563553B2, “Compounds and compositions as protein kinase inhibitors” (Novartis AG, priority 2009, dated 2013).

Biological target: b-Raf(V600E) (Homo sapiens (Human), UniProt P15056, V600E)
Assay: Raf/Mek Amplified Luminescence Proximity Homogeneous Assay (Alpha Screen)
Format: biochemical
Conditions: b-Raf(V600E) approximately 4 pM; biotinylated Mek, kinase dead approximately 10 nM; ATP 10 μM; pre-incubation 60 minutes; reaction 3 hours at room temperature; read-out: mut-B-RAF IC50
Protocol: Raf/Mek Amplified Luminescence Proximity Homogeneous Assay
Assay buffer: 50 mM Tris, pH 7.5, 15 mM MgCl2, 0.01% Bovine Serum Albumin (BSA), 1 mM dithiothreitol (DTT) Stop buffer: 60 mM ethylenediaminetetraacetic acid (EDTA), 0.01% Tween® 20 Bead buffer: 50 mM Tris, pH 7.5, 0.01% Tween® 20 […]
biotinylated Mek, kinase dead
Alpha Screen detection kit (available from PerkinElmer™, #6760617R)
Anti phospho-MEK1/2 (available from Cell Signaling Technology, Inc. #9121) 384 well assay plates (White Greiner® plates, #781207) […]
biotinylated Mek, Kinase dead approximately 10 nM
Pre-incubation time with compounds 60 minutes at room temperature
Reaction time 1 or 3 hours at room temperature
Raf and biotinylated Mek, kinase dead, were combined at 2× final concentrations in assay buffer (50 mM Tris, pH 7.5, 15 mM MgCl2, 0.01% BSA and 1 mM DTT) and dispensed 10 μl per well in assay plates (Greiner white 384 well assay plates #781207) containing 0.5 μl of 40× of a raf kinase inhibitor test compound diluted in 100% DMSO. The plate was incubated for 60 minutes at room temperature.
The Raf kinase activity reaction was started by the addition of 10 μL per well of 2×ATP diluted in assay buffer. […] Phosphorylated product was measured using a rabbit anti-p-MEK (Cell Signaling, #9121) antibody and the Alpha Screen IgG (ProteinA) detection Kit (PerkinElmer #6760617R), by the addition of 30 μL to the well of a mixture of the antibody (1:2000 dilution) and detection beads (1:2000 dilution of both beads) in bead buffer (50 mM Tris, pH 7.5, 0.01% Tween20). The additions were carried out under dark conditions to protect the detection beads from light. A lid was placed on top of the plate and incubated for 1 hour at room temperature, then the luminescence was read on a PerkinElmer Envision instrument. The concentration of each compound for 50% inhibition (IC50) was calculated by non-linear regression using XL Fit data analysis software.

Chain of b-Raf(V600E) (P15056 whole entry V600E): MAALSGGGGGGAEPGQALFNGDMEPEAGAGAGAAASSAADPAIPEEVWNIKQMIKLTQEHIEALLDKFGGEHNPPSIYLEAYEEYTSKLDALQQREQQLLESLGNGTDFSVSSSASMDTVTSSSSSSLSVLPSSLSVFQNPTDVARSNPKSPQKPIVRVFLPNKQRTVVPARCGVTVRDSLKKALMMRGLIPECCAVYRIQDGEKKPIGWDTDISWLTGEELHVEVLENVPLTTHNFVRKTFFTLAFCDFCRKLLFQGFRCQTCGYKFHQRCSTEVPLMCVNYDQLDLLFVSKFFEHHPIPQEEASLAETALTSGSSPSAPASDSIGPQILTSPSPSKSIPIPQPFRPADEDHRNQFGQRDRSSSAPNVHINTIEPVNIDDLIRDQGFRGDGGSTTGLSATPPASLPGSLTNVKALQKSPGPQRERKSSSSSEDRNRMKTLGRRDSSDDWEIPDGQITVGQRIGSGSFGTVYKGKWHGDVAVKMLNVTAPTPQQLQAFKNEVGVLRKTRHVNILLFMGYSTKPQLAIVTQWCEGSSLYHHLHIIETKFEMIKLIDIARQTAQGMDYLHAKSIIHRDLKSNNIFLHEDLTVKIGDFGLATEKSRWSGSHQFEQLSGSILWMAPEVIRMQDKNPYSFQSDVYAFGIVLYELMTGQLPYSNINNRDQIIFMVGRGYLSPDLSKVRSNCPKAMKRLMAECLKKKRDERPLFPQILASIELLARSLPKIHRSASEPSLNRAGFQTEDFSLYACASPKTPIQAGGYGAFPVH

SMILES | IC50
Cc1cc(NS(C)(=O)=O)c(Cl)c(-c2nc(C3(C)CC3)[nH]c2-c2ccnc(NCCC#N)n2)c1 [Example 1AZ, N-(2-Chloro-3-(5-(2-(2-cyanoethylamino)pyrimidin-4-yl)-2-(1-methylcyclopropyl)-1H-imidazol-4-yl)-5-methylphenyl)methanesulfonamide] | 0.29 nM
CCCS(=O)(=O)Nc1cccc(-c2nc(C3CC3)[nH]c2-c2ccnc(NCCC(N)=O)n2)c1F [Example 4H, 3-(4-(2-Cyclopropyl-4-(2-fluoro-3-(propylsulfonamido)phenyl)-1H-imidazol-5-yl)pyrimidin-2-ylamino)propanamide] | 2 nM
COC(=O)N[C@@H](C)CNc1nccc(-c2[nH]c(C(C)(C)C)nc2-c2cc(NS(=O)(=O)C3CC3)c(C)c(OC)c2)n1 [Example 1L, (S)-Methyl 1-(4-(2-tert-butyl-4-(3-(cyclopropanesulfonamido)-5-methoxy-4-methylphenyl)-1H-imidazol-5-yl)pyrimidin-2-ylamino)propan-2-ylcarbamate] | 157 nM
CC1(c2nc(-c3cccc(NS(C)(=O)=O)c3Cl)c(-c3ccnc(NCCC#N)n3)[nH]2)CC1 [Example 1BC, N-(2-Chloro-3-(5-(2-(2-cyanoethylamino)pyrimidin-4-yl)-2-(1-methylcyclopropyl)-1H-imidazol-4-yl)phenyl)methanesulfonamide] | 1 nM
COC(=O)N[C@@H](C)CNc1nccc(-c2[nH]c(-c3ccc(C(F)(F)F)cc3)nc2-c2cc(F)cc(NS(C)(=O)=O)c2Cl)n1 [Example 1BZ, (S)-Methyl 1-(4-(4-(2-chloro-5-fluoro-3-(methylsulfonamido)phenyl)-2-(4-(trifluoromethyl)phenyl)-1H-imidazol-5-yl)pyrimidin-2-ylamino)propan-2-ylcarbamate] | 2 nM
COC(=O)N[C@@H](C)CNc1nccc(-c2[nH]c(C(C)(C)C)nc2-c2cc(Cl)cc(NS(=O)(=O)C3CC3)c2C)n1 [Example 1N, (S)-Methyl 1-(4-(2-tert-butyl-4-(5-chloro-3-(cyclopropanesulfonamido)-2-methylphenyl)-1H-imidazol-5-yl)pyrimidin-2-ylamino)propan-2-ylcarbamate] | 204 nM
CNc1nccc(-c2[nH]c(C3CC3)nc2-c2cc(F)cc(NS(C)(=O)=O)c2Cl)n1 [Example 1BW, N-(2-Chloro-3-(2-cyclopropyl-5-(2-(methylamino)pyrimidin-4-yl)-1H-imidazol-4-yl)-5-fluorophenyl)methanesulfonamide] | 31 nM
CC(C)(C)c1nc(-c2cc(F)cc(NS(C)(=O)=O)c2Cl)c(-c2ccnc(N)n2)[nH]1 [Example 1BJ, N-(3-(5-(2-Aminopyrimidin-4-yl)-2-tert-butyl-1H-imidazol-4-yl)-2-chloro-5-fluorophenyl)methanesulfonamide] | 5 nM
COC(=O)N[C@@H](C)CNc1nccc(-c2[nH]c(C3CC3)nc2-c2cccc(NS(C)(=O)=O)c2)n1 [Example 4K, (S)-Methyl 1-(4-(2-cyclopropyl-4-(3-(methylsulfonamido)phenyl)-1H-imidazol-5-yl)pyrimidin-2-ylamino)propan-2-ylcarbamate] | 8 nM
CS(=O)(=O)Nc1cc(F)cc(-c2nc(C3CC3)[nH]c2-c2ccncn2)c1Cl [Example 2J, N-(2-Chloro-3-(2-cyclopropyl-5-(pyrimidin-4-yl)-1H-imidazol-4-yl)-5-fluorophenyl)methanesulfonamide] | 87 nM
CCCS(=O)(=O)Nc1cccc(-c2nc(C3CC3)[nH]c2-c2ccnc(NCCC#N)n2)c1F [Example 4G, N-(3-(5-(2-(2-Cyanoethylamino)pyrimidin-4-yl)-2-cyclopropyl-1H-imidazol-4-yl)-2-fluorophenyl)propane-1-sulfonamide] | 0.13 nM
CS(=O)(=O)Nc1cc(Cl)cc(-c2nc(C3CC3)[nH]c2-c2ccnc(NCCC#N)n2)c1F [Example 2A, N-(5-Chloro-3-(5-(2-(2-cyanoethylamino)pyrimidin-4-yl)-2-cyclopropyl-1H-imidazol-4-yl)-2-fluorophenyl)methanesulfonamide] | 0.08 nM
COC(=O)N[C@@H](C)CNc1nccc(-c2[nH]c(C3CC3)nc2-c2cc(Cl)cc(NS(=O)(=O)C(C)C)c2)n1 [Example 1M, (S)-Methyl 1-(4-(4-(3-chloro-5-(1-methylethylsulfonamido)phenyl)-2-cyclopropyl-1H-imidazol-5-yl)pyrimidin-2-ylamino)propan-2-ylcarbamate] | 0.63 nM
COC(=O)N[C@@H](C)CNc1nccc(-c2[nH]c(C(C)(C)C)nc2-c2cccc(NS(=O)(=O)C(C)C)c2F)n1 [Example 2D] | 0.78 nM
COC(=O)N[C@@H](C)CNc1nccc(-c2[nH]c(C3CC3)nc2-c2cc(F)cc(NS(C)(=O)=O)c2Cl)n1 [Example 5A, (S)-methyl 1-(4-(4-(2-chloro-5-fluoro-3-(methylsulfonamido)phenyl)-2-cyclopropyl-1H-imidazol-5-yl)pyrimidin-2-ylamino)propan-2-ylcarbamate] | 0.4 nM
COC(=O)N[C@@H](C)CNc1nccc(-c2[nH]c(C3CC3)nc2-c2cc(Cl)cc(NS(C)(=O)=O)c2)n1 [Example 1S, (S)-Methyl 1-(4-(4-(3-chloro-5-(methylsulfonamido)phenyl)-2-cyclopropyl-1H-imidazol-5-yl)pyrimidin-2-ylamino)propan-2-ylcarbamate] | 0.48 nM
CC(C)(C)c1nc(-c2cccc(NS(=O)(=O)c3c(F)cccc3F)c2Cl)c(-c2ccnc(N)n2)[nH]1 [Example 1BK, N-(3-(5-(2-Aminopyrimidin-4-yl)-2-tert-butyl-1H-imidazol-4-yl)-2-chlorophenyl)-2,6-difluorobenzenesulfonamide] | 0.22 nM
COC(=O)N[C@@H](C)CNc1nccc(-c2[nH]c(C(C)(C)C)nc2-c2cc(NS(=O)(=O)C(C)C)c(C)c(OC)c2)n1 [Example 1K, (S)-Methyl 1-(4-(2-tert-butyl-4-(3-methoxy-4-methyl-5-(1-methylethylsulfonamido)phenyl)-1H-imidazol-5-yl)pyrimidin-2-ylamino)propan-2-ylcarbamate] | 189 nM
COC(=O)N[C@@H](C)CNc1nccc(-c2[nH]c(C(C)(C)C)nc2-c2cc(Cl)cc(NS(=O)(=O)CC(C)C)c2)n1 [Example 1G, (S)-methyl 1-(4-(2-tert-butyl-4-(3-chloro-5-(2-methylpropylsulfonamido)phenyl)-1H-imidazol-5-yl)pyrimidin-2-ylamino)propan-2-ylcarbamate] | 0.3 nM
CS(=O)(=O)Nc1cc(Cl)cc(-c2nc(C3CC3)[nH]c2-c2ccnc(N)n2)c1F [Example 1BG, N-(3-(5-(2-Aminopyrimidin-4-yl)-2-cyclopropyl-1H-imidazol-4-yl)-5-chloro-2-fluorophenyl)methanesulfonamide] | 4 nM
CCCS(=O)(=O)Nc1cccc(-c2nc(C3CC3)[nH]c2-c2ccnc(NC[C@H](C)NC(=O)OC)n2)c1Cl [Example 4A-3, (S)-methyl 1-(4-(4-(2-chloro-3-(propylsulfonamido)phenyl)-2-cyclopropyl-1H-imidazol-5-yl)pyrimidin-2-ylamino)propan-2-ylcarbamate] | 0.13 nM
COC(=O)N[C@@H](C)CNc1nccc(-c2nc(C(C)(C)C)[nH]c2-c2cc(NS(=O)(=O)C(C)C)cc(OC(F)F)c2)n1 [Example 1P, (S)-Methyl 1-(4-(2-tert-butyl-5-(3-(difluoromethoxy)-5-(1-methylethylsulfonamido)phenyl)-1H-imidazol-4-yl)pyrimidin-2-ylamino)propan-2-ylcarbamate] | 11.2 nM
CCCS(=O)(=O)Nc1cc(Cl)cc(-c2[nH]c(C3CC3)nc2-c2ccnc(NC[C@H](C)NC(=O)OC)n2)c1F [Example 1W, (S)-Methyl 1-(4-(5-(5-chloro-2-fluoro-3-(propylsulfonamido)phenyl)-2-cyclopropyl-1H-imidazol-4-yl)pyrimidin-2-ylamino)propan-2-ylcarbamate] | 0.89 nM
COC(=O)N[C@@H](C)CNc1nccc(-c2nc(C3CC3)[nH]c2-c2cc(Cl)cc(NS(=O)(=O)c3ccc(F)cc3)c2F)n1 [Example 1AW] | 1 nM
COC(=O)N[C@@H](C)CNc1nccc(-c2[nH]c(C(C)(C)C)nc2-c2cc(Cl)cc(NS(=O)(=O)C(C)C)c2C)n1 [Example 1O, (S)-Methyl 1-(4-(2-tert-butyl-4-(5-chloro-2-methyl-3-(1-methylethylsulfonamido)phenyl)-1H-imidazol-5-yl)pyrimidin-2-ylamino)propan-2-ylcarbamate] | 67.2 nM
C[C@H](O)CNc1nccc(-c2[nH]c(C3CC3)nc2-c2cccc(NS(C)(=O)=O)c2F)n1 [Example 3B, (S)—N-(3-(2-cyclopropyl-5-(2-(2-hydroxypropylamino)pyrimidin-4-yl)-1H-imidazol-4-yl)-2-fluorophenyl)methanesulfonamide] | 28 nM
